Data taken from patent US12545639B2, “3-substituted phenylamidine compounds, preparation and use thereof” (PI INDUSTRIES LTD., priority 2019, dated 2026).

Columns and labels:
Botrytis cinerea = Botrytis cinerea (gray mold) in vitro test, radial growth on potato dextrose agar; assay type: cell-based; conditions: 168 h, 300 ppm in potato dextrose agar, 22° C., 90% relative humidity, seven days, read-out: control compared to the untreated check (radial growth)
Alternaria solani = Alternaria solani (early blight of tomato/potato) in vitro test, radial growth on potato dextrose agar; assay type: cell-based; conditions: 168 h, 300 ppm in potato dextrose agar, 25° C., 60% relative humidity, seven days, read-out: control compared to the untreated check (radial growth)
Fusarium culmorum = Fusarium culmorum (foot rot of cereals) in vitro test, radial growth on potato dextrose agar; assay type: cell-based; conditions: 168 h, 300 ppm in potato dextrose agar, 25° C., 60% relative humidity, seven days, read-out: control compared to the untreated check (radial growth)
Method in brief: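 Compound in 0.3% DMSO mixed into potato dextrose agar, plates seeded with a 5 mm mycelial disc from an actively growing virulent culture. After seven days at 25° C and 60% relative humidity, radial growth was measured against untreated control.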

Colletotrichum capsici = Colletotrichum capsici (anthracnose) in vitro test, radial growth on potato dextrose agar; assay type: cell-based; conditions: Colletotrichum truncatum, 168 h; 300 ppm in potato dextrose agar; 25° C., 60% relative humidity, seven days; read-out: control compared to the untreated check (radial growth)
Pyricularia oryzae [1] = assay: whole plant or invertebrate; assay type: in vivo, Pyricularia oryzae on rice; conditions: read-out: Efficacy (% control), disease severity compared to the untreated check
Phakopsora pachyrhizi = Phakopsora pachyrhizi test in soybean, preventive, in vivo on plants; conditions: in Glycine max, read-out: Efficacy (% control), disease severity compared to the untreated check
[2] = system: Septoria lycopersici/Corynespora cassicola (CORYCA); assay: Septoria lycopersici/Corynespora cassicola (CORYCA) (leaf spot of tomato) in vitro test, radial growth on potato dextrose agar; assay type: cell-based; conditions: 168 h, 300 ppm in potato dextrose agar, 25° C., 70% relative humidity, seven days, read-out: control compared to the untreated check (radial growth)
Pyricularia oryzae [3] = assay: microbe, parasite or virus in culture; assay type: cell-based; conditions: 168 h, read-out: control compared to the untreated check (radial growth)
Rhizoctonia solani = Rhizoctonia solani (rice sheath blight/potato black scurf) in vitro test, radial growth on potato dextrose agar; assay type: cell-based; conditions: 168 h, 300 ppm in potato dextrose agar, 25° C., 60% relative humidity, seven days, read-out: control compared to the untreated check (radial growth)

CCN(C)C=Nc1cc(C)cc(Cc2ccc(C(F)(F)F)cc2)c1Cl [Compound 51, N′-(2-chloro-5-methyl-3-(4-(trifluoromethyl)benzyl)phenyl)-N-ethyl-N-methylformimidamide]
≥ 70%: inhibition of growth at 300 ppm (Botrytis cinerea) | inhibition of growth at 300 ppm (Alternaria solani) | inhibition of growth at 300 ppm (Fusarium culmorum) | inhibition of growth at 300 ppm (Colletotrichum capsici) | pest or weed control at 500 ppm (Pyricularia oryzae [1]) | pest or weed control at 500 ppm (Phakopsora pachyrhizi) | inhibition of growth at 300 ppm [2] | inhibition of growth at 300 ppm (Pyricularia oryzae [3]) | inhibition of growth at 300 ppm (Rhizoctonia solani)

CCN(C)C=Nc1cc(C)cc(Cc2ccc(OC(F)(F)F)cc2)c1Cl [Compound 52, N′-(2-chloro-5-methyl-3-(4-(trifluoromethoxy)benzyl)phenyl)-N-ethyl-N-methylformimidamide]
≥ 70%: inhibition of growth at 300 ppm (Botrytis cinerea) | inhibition of growth at 300 ppm (Alternaria solani) | inhibition of growth at 300 ppm (Fusarium culmorum) | pest or weed control at 500 ppm (Pyricularia oryzae [1]) | pest or weed control at 500 ppm (Phakopsora pachyrhizi) | inhibition of growth at 300 ppm [2] | inhibition of growth at 300 ppm (Pyricularia oryzae [3]) | inhibition of growth at 300 ppm (Rhizoctonia solani)

CCN(C)C=Nc1cc(Cl)cc(N(C)c2cccc(Cl)c2)c1C [Compound 180, N′-(5-chloro-3-((3-chlorophenyl)(methyl)amino)-2-methylphenyl)-N-ethyl-N-methylformimidamide]
≥ 70%: inhibition of growth at 300 ppm (Alternaria solani) | pest or weed control at 500 ppm (Pyricularia oryzae [1])

CCN(C)C=Nc1cc(OC)cc(Cc2cccc(F)c2)c1C [Compound 277, N-ethyl-N′-(3-(3-fluorobenzyl)-5-methoxy-2-methylphenyl)-N-methylformimidamide]
≥ 70%: pest or weed control at 500 ppm (Pyricularia oryzae [1]) | pest or weed control at 500 ppm (Phakopsora pachyrhizi)

CCN(C)C=Nc1cc(C)cc(NCc2ccccc2C(F)(F)F)c1Cl [Compound 181, N′-(2-chloro-5-methyl-3-((2-(trifluoromethyl)benzyl)amino)phenyl)-N-ethyl-N-methylformimidamide]
≥ 70%: inhibition of growth at 300 ppm (Botrytis cinerea) | inhibition of growth at 300 ppm (Alternaria solani) | inhibition of growth at 300 ppm (Colletotrichum capsici) | pest or weed control at 500 ppm (Pyricularia oryzae [1]) | pest or weed control at 500 ppm (Phakopsora pachyrhizi) | inhibition of growth at 300 ppm (Pyricularia oryzae [3]) | inhibition of growth at 300 ppm (Rhizoctonia solani)

CCN(C)C=Nc1cc(C)cc(Cc2ccccc2OC(F)(F)F)c1Cl [Compound 50, N′-(2-chloro-5-methyl-3-(2-(trifluoromethoxy)benzyl)phenyl)-N-ethyl-N-methylformimidamide]
≥ 70%: inhibition of growth at 300 ppm (Botrytis cinerea) | inhibition of growth at 300 ppm (Alternaria solani) | inhibition of growth at 300 ppm (Colletotrichum capsici) | pest or weed control at 500 ppm (Pyricularia oryzae [1]) | pest or weed control at 500 ppm (Phakopsora pachyrhizi) | inhibition of growth at 300 ppm [2] | inhibition of growth at 300 ppm (Pyricularia oryzae [3]) | inhibition of growth at 300 ppm (Rhizoctonia solani)

CCN(C)C=Nc1cc(C)cc(Cc2cc(C)cc(C)c2)c1Cl [Compound 55, N′-(2-chloro-3-(3,5-dimethylbenzyl)-5-methylphenyl)-N-ethyl-N-methylformimidamide]
≥ 70%: inhibition of growth at 300 ppm (Botrytis cinerea) | inhibition of growth at 300 ppm (Alternaria solani) | inhibition of growth at 300 ppm (Fusarium culmorum) | pest or weed control at 500 ppm (Pyricularia oryzae [1]) | pest or weed control at 500 ppm (Phakopsora pachyrhizi) | inhibition of growth at 300 ppm [2] | inhibition of growth at 300 ppm (Pyricularia oryzae [3]) | inhibition of growth at 300 ppm (Rhizoctonia solani)

CCN(C)C=Nc1cc(C)cc(Cc2ccc(F)c(Cl)c2)c1Cl [Compound 54, N′-(2-chloro-3-(3-chloro-4-fluorobenzyl)-5-methylphenyl)-N-ethyl-N-methylformimidamide]
≥ 70%: inhibition of growth at 300 ppm (Botrytis cinerea) | inhibition of growth at 300 ppm (Alternaria solani) | inhibition of growth at 300 ppm (Fusarium culmorum) | pest or weed control at 500 ppm (Pyricularia oryzae [1]) | pest or weed control at 500 ppm (Phakopsora pachyrhizi) | inhibition of growth at 300 ppm [2] | inhibition of growth at 300 ppm (Pyricularia oryzae [3]) | inhibition of growth at 300 ppm (Rhizoctonia solani)

CCN(C)C=Nc1cc(C)cc(Cc2ccc(Cl)cc2)c1C [Compound 224, N′-(3-(4-chlorobenzyl)-2,5-dimethylphenyl)-N-ethyl-N-methylformimidamide]
≥ 70%: inhibition of growth at 300 ppm (Botrytis cinerea) | inhibition of growth at 300 ppm (Alternaria solani) | inhibition of growth at 300 ppm (Fusarium culmorum) | inhibition of growth at 300 ppm (Colletotrichum capsici) | pest or weed control at 500 ppm (Phakopsora pachyrhizi) | inhibition of growth at 300 ppm [2] | inhibition of growth at 300 ppm (Pyricularia oryzae [3]) | inhibition of growth at 300 ppm (Rhizoctonia solani)

CCN(C)C=Nc1cc(Cl)cc(N(C)c2ccccc2F)c1C [Compound 178, N′-(5-chloro-3-((2-fluorophenyl)(methyl)amino)-2-methylphenyl)-N-ethyl-N-methylformimidamide]
≥ 70%: inhibition of growth at 300 ppm (Botrytis cinerea) | inhibition of growth at 300 ppm (Alternaria solani) | pest or weed control at 500 ppm (Pyricularia oryzae [1]) | pest or weed control at 500 ppm (Phakopsora pachyrhizi) | inhibition of growth at 300 ppm (Pyricularia oryzae [3]) | inhibition of growth at 300 ppm (Rhizoctonia solani)

CCN(C)C=Nc1cc(Cl)cc(Cc2ccc(F)cc2)c1C [Compound 124, N′-(5-chloro-3-(4-fluorobenzyl)-2-methylphenyl)-N-ethyl-N-methylformimidamide]
≥ 70%: inhibition of growth at 300 ppm (Botrytis cinerea) | inhibition of growth at 300 ppm (Alternaria solani) | inhibition of growth at 300 ppm (Fusarium culmorum) | inhibition of growth at 300 ppm (Colletotrichum capsici) | pest or weed control at 500 ppm (Phakopsora pachyrhizi) | inhibition of growth at 300 ppm [2] | inhibition of growth at 300 ppm (Pyricularia oryzae [3]) | inhibition of growth at 300 ppm (Rhizoctonia solani)

CCN(C)C=Nc1cc(C)cc(Cc2cccc(C)c2)c1C [Compound 208, N′-(2,5-dimethyl-3-(3-methylbenzyl)phenyl)-N-ethyl-N-methylformimidamide]
≥ 70%: inhibition of growth at 300 ppm (Botrytis cinerea) | inhibition of growth at 300 ppm (Alternaria solani) | inhibition of growth at 300 ppm (Fusarium culmorum) | inhibition of growth at 300 ppm (Colletotrichum capsici) | pest or weed control at 500 ppm (Phakopsora pachyrhizi) | inhibition of growth at 300 ppm [2] | inhibition of growth at 300 ppm (Pyricularia oryzae [3]) | inhibition of growth at 300 ppm (Rhizoctonia solani)

CCN(C)C=Nc1cc(Cl)cc(Cc2ccc(F)c(F)c2)c1C [Compound 129, N′-(5-chloro-3-(3,4-difluorobenzyl)-2-methylphenyl)-N-ethyl-N-methylformimidamide]
≥ 70%: inhibition of growth at 300 ppm (Botrytis cinerea) | inhibition of growth at 300 ppm (Alternaria solani) | inhibition of growth at 300 ppm (Fusarium culmorum) | inhibition of growth at 300 ppm (Colletotrichum capsici) | pest or weed control at 500 ppm (Phakopsora pachyrhizi) | inhibition of growth at 300 ppm [2] | inhibition of growth at 300 ppm (Pyricularia oryzae [3]) | inhibition of growth at 300 ppm (Rhizoctonia solani)

CCN(C)C=Nc1cc(C)cc(Cc2ccccc2Cl)c1C [Compound 220, N′-(3-(2-chlorobenzyl)-2,5-dimethylphenyl)-N-ethyl-N-methylformimidamide]
≥ 70%: inhibition of growth at 300 ppm (Botrytis cinerea) | inhibition of growth at 300 ppm (Alternaria solani) | inhibition of growth at 300 ppm (Fusarium culmorum) | inhibition of growth at 300 ppm (Colletotrichum capsici) | pest or weed control at 500 ppm (Phakopsora pachyrhizi) | inhibition of growth at 300 ppm [2] | inhibition of growth at 300 ppm (Pyricularia oryzae [3]) | inhibition of growth at 300 ppm (Rhizoctonia solani)

CCN(C)C=Nc1cc(Cl)cc(Cc2cccc(C)c2)c1C [Compound 94, N′-(5-chloro-2-methyl-3-(3-methylbenzyl)phenyl)-N-ethyl-N-methylformimidamide]
≥ 70%: inhibition of growth at 300 ppm (Botrytis cinerea) | inhibition of growth at 300 ppm (Alternaria solani) | inhibition of growth at 300 ppm (Colletotrichum capsici) | pest or weed control at 500 ppm (Pyricularia oryzae [1]) | pest or weed control at 500 ppm (Phakopsora pachyrhizi) | inhibition of growth at 300 ppm [2] | inhibition of growth at 300 ppm (Pyricularia oryzae [3]) | inhibition of growth at 300 ppm (Rhizoctonia solani)
